Publication PMC11079024, “Identification of a family of species-selective complex I inhibitors as potential anthelmintics” (Nature Communications, 2024)
Read-outs that look alike come from different tables or passages of the source.

Assays:
[1] = target: C. elegans (N2) complex I (NADH:ubiquinone oxidoreductase) (Caenorhabditis elegans, UniProt P24887+Q93873+Q94360); experiment: biochemical; type: biochemical; conditions: for activity at 0.0001 µM / activity at 0.0005 µM / activity at 0.001 µM / activity at 0.0025 µM / activity at 0.005 µM / activity at 0.013 µM / activity at 0.025 µM / activity at 0.063 µM / activity at 0.125 µM / activity at 0.313 µM / activity at 0.625 µM / activity at 1.5 µM / activity at 3 µM / activity at 15 µM / activity at 37.5 µM / activity at 75 µM: read-out: C. elegans mitochondrial complex I activity; for Log IC50 C. elegans complex I: log10 of IC50 in µM, C. elegans mitochondria
Procedure, shortened: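 Complex I rate: initial linear slope of A600 over 15 min, expressed as percent of solvent control. Triple freeze-thawed mitochondria (0.2 mg/mL) in KPi pH 7.5, BSA 3 mg/mL, NADH 80 μM, decylubiquinone 60 μM, DCIP 160 μM, antimycin A, KCN.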

L1 wild-type C. elegans = conditions: for Screen "Hit": 50 μM
in vitro = conditions: human; for viability at 2 days, 3.13 µM / viability at 2 days, 6.25 µM / viability at 2 days, 12.5 µM / viability at 2 days, 25 µM / viability at 2 days, 50 µM / viability at 2 days, 100 µM: HEK293 cells (Flp-In-293), HEK293 viability
[2] = in vitro complex I dose response on C. elegans mitochondria, average of at least two biological replicates, fit in R (DRC), read-out: IC50 C. elegans complex I
[3] = wild-type C. elegans mitochondria, read-out: C. elegans Complex I IC50
[4] = hit = relative motility below 0.25 3 hours after removal of KCN
[5] = Dose 0.2 µM, mean of at least three biological replicates
[6] = HEK293 Cell Viability Assay LC50, HEK293 cells, estimated from fitted dose-response curves
[7] = wild-type C. elegans, individual Rep1-Rep4, read-out: percent in vitro complex I activity relative to solvent control, single replicates
[8] = wild-type C. elegans, mean of Rep1-4, read-out: percent in vitro complex I activity relative to solvent control, Mean
[9] = wild-type (N2) mitochondria, read-out: C. elegans Complex I IC50
[10] = KCN survival assay, hit = relative motility below 0.25

C. elegans (N2) complex I (NADH:ubiquinone oxidoreductase), sequence (Q94360 17-199): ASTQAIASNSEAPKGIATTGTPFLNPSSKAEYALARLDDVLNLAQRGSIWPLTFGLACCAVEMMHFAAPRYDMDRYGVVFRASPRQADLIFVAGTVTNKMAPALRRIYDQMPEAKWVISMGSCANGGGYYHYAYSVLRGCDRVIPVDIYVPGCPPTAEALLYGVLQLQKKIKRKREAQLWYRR
C. elegans (N2) complex I (NADH:ubiquinone oxidoreductase), sequence (P24887 whole entry): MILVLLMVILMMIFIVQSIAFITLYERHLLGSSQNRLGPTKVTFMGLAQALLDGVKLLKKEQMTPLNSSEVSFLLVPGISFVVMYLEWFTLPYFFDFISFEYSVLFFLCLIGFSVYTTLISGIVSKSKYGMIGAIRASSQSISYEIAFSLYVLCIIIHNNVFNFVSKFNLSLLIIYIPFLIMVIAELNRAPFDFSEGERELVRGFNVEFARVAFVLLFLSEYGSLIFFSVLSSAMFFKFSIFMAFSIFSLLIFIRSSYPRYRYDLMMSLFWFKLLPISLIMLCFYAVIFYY
C. elegans (N2) complex I (NADH:ubiquinone oxidoreductase), sequence (Q93873 31-482): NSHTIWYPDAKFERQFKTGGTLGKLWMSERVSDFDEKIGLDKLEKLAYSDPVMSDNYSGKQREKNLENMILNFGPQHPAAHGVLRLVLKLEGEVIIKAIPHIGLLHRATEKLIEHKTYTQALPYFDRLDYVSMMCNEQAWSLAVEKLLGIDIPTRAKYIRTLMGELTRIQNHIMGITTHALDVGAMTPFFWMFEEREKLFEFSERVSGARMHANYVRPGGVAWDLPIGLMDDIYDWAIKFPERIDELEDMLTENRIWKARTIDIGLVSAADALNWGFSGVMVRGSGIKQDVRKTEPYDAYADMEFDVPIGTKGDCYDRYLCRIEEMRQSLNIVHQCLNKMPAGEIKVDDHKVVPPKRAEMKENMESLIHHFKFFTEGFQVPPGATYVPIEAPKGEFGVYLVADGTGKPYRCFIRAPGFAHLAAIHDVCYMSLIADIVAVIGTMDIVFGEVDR

`Cc1nc2ccccc2n1CCOc1ccccc1` [Compound 5550112] gave an activity at 0.0001 µM [1] of 88.8%, an activity at 0.0005 µM [1] of 84.9% and an activity at 0.001 µM [1] of 88.8%. The activity at 0.0025 µM [1] was 93.8%, the activity at 0.005 µM [1] was 86.7% and the activity at 0.013 µM [1] was 87.2%. It also gave an activity at 0.025 µM [1] of 83.3%, an activity at 0.063 µM [1] of 78.1% and an activity at 0.125 µM [1] of 80.5%. For the same compound, the activity at 0.313 µM [1] was 78%, the activity at 0.625 µM [1] was 89.4% and the activity at 1.5 µM [1] was 71.3%. It also gave an activity at 3 µM [1] of 60.5%, an activity at 15 µM [1] of 24.9% and an activity at 37.5 µM [1] of 11.1%. For the same compound, the activity at 75 µM [1] was 5.83%, the IC50 [1, 2] was 5.79 µM and the “Log IC50 C. elegans complex I” value [1] was 0.76 µM. For the same compound, the IC50 [1, 3] was 5.79 µM, the “Screen "Hit"” value (L1 wild-type C. elegans; [4]) was “Y (hits were identified as compounds that reduced relative motility below 0.25 (75% reduction))” and the “C. elegans KCN Survival” value (L1 wild-type C. elegans; [5]) was 0.995. For the same compound, the “C. elegans KCN Survival” value (L1 wild-type C. elegans; Dose 0.39 µM) was 1.044, the “C. elegans KCN Survival” value (L1 wild-type C. elegans; Dose 1.56 µM) was 1.038 and the “C. elegans KCN Survival” value (L1 wild-type C. elegans; Dose 3.13 µM) was 1.021. The “C. elegans KCN Survival” value (L1 wild-type C. elegans; Dose 6.25 µM) was 1.008, the “C. elegans KCN Survival” value (L1 wild-type C. elegans; Dose 12.5 µM) was 0.918 and the “C. elegans KCN Survival” value (L1 wild-type C. elegans; Dose 25 µM) was 0.699. The “C. elegans KCN Survival” value (L1 wild-type C. elegans; Dose 50 µM) was 0.269, the “C. elegans KCN Survival” value (L1 wild-type C. elegans; Dose 100 µM) was 0.187 and the CC50 at 2 days (in vitro; [6]) was over 100 µM. For the same compound, the viability at 2 days, 3.13 µM (in vitro) was 100%, the viability at 2 days, 6.25 µM (in vitro) was 98.3% and the viability at 2 days, 12.5 µM (in vitro) was 99.1%. It also gave a viability at 2 days, 25 µM (in vitro) of 100%, a viability at 2 days, 50 µM (in vitro) of 100% and a viability at 2 days, 100 µM (in vitro) of 100%.
In the case of `Cc1nc2ccccc2n1CCOc1ccccc1Cl` [Compound 5561642], the activity at 0.0001 µM [1] is reported as 91.5%, the activity at 0.0005 µM [1] is reported as 94% and the activity at 0.001 µM [1] is reported as 89.2%. The activity at 0.0025 µM [1] was 95%, the activity at 0.005 µM [1] was 93.1% and the activity at 0.013 µM [1] was 84.7%. It also gave an activity at 0.025 µM [1] of 83.1%, an activity at 0.063 µM [1] of 81.1% and an activity at 0.125 µM [1] of 84.1%. It also gave an activity at 0.313 µM [1] of 65.5%, an activity at 0.625 µM [1] of 71.7% and an activity at 1.5 µM [1] of 51.9%. For the same compound, the activity at 3 µM [1] was 40.7%, the activity at 15 µM [1] was 12.4% and the activity at 37.5 µM [1] was 4.46%. For the same compound, the activity at 75 µM [1] was 4.41%, the IC50 [1, 2] was 2.35 µM and the “Log IC50 C. elegans complex I” value [1] was 0.37 µM. The IC50 [1, 3] was 2.35 µM, the “Screen "Hit"” value (L1 wild-type C. elegans; [4]) was “Y (hits were identified as compounds that reduced relative motility below 0.25 (75% reduction))” and the “C. elegans KCN Survival” value (L1 wild-type C. elegans; [5]) was 0.982. The “C. elegans KCN Survival” value (L1 wild-type C. elegans; Dose 0.39 µM) was 1.047, the “C. elegans KCN Survival” value (L1 wild-type C. elegans; Dose 1.56 µM) was 0.991 and the “C. elegans KCN Survival” value (L1 wild-type C. elegans; Dose 3.13 µM) was 0.985. For the same compound, the “C. elegans KCN Survival” value (L1 wild-type C. elegans; Dose 6.25 µM) was 0.849, the “C. elegans KCN Survival” value (L1 wild-type C. elegans; Dose 12.5 µM) was 0.500 and the “C. elegans KCN Survival” value (L1 wild-type C. elegans; Dose 25 µM) was 0.148. The “C. elegans KCN Survival” value (L1 wild-type C. elegans; Dose 50 µM) was 0.182, the CC50 at 2 days (in vitro) was 93.1 µM and the viability at 2 days, 3.13 µM (in vitro) was 100%. For the same compound, the viability at 2 days, 6.25 µM (in vitro) was 100%, the viability at 2 days, 12.5 µM (in vitro) was 100% and the viability at 2 days, 25 µM (in vitro) was 100%. The viability at 2 days, 50 µM (in vitro) was 81.4% and the viability at 2 days, 100 µM (in vitro) was 46.4%.
`Cc1nc2ccccc2n1Cc1ccc(Br)cc1` [Compound 5567167] gave a remaining activity at 0.0001 µM [1, 7] of 94%, a remaining activity at 0.0001 µM [1, 8] of 85.9% and a remaining activity at 0.0005 µM [1, 7] of 85.1%. The remaining activity at 0.0005 µM [1, 8] was 85.6%, the remaining activity at 0.001 µM [1, 7] was 85.9% and the remaining activity at 0.001 µM [1, 8] was 84.4%. For the same compound, the remaining activity at 0.0025 µM ([1]; 0.0025 µM, wild-type C. elegans, mean of Rep1-4, read-out: percent in vitro complex I activity relative to solvent control, Mean) was 79.7%, the remaining activity at 0.005 µM [1, 7] was 78% and the remaining activity at 0.005 µM [1, 8] was 79.5%. For the same compound, the remaining activity at 0.013 µM [1, 7] was 72.2%, the remaining activity at 0.013 µM [1, 8] was 70.5% and the remaining activity at 0.025 µM [1, 7] was 66.7%. The remaining activity at 0.025 µM [1, 8] was 62%, the remaining activity at 0.063 µM [1, 7] was 38.8% and the remaining activity at 0.063 µM [1, 8] was 36%. The remaining activity at 0.125 µM [1, 7] was 23.6%, the remaining activity at 0.125 µM [1, 8] was 23.7% and the remaining activity at 0.313 µM [1, 7] was 8.78%. For the same compound, the remaining activity at 0.313 µM [1, 8] was 11.9%, the remaining activity at 0.625 µM ([1]; 0.625 µM, wild-type C. elegans, mean of Rep1-4, read-out: percent in vitro complex I activity relative to solvent control, Mean) was 2.34% and the remaining activity at 1.5 µM ([1]; 1.5 µM, wild-type C. elegans, mean of Rep1-4, read-out: percent in vitro complex I activity relative to solvent control, Mean) was 0.485%. The remaining activity at 3 µM ([1]; 3 µM, wild-type C. elegans, mean of Rep1-4, read-out: percent in vitro complex I activity relative to solvent control, Mean) was 0.612%, the remaining activity at 15 µM [1, 7] was 0% and the remaining activity at 15 µM [1, 8] was 0%. It also gave a remaining activity at 37.5 µM [1, 7] of 0%, a remaining activity at 37.5 µM [1, 8] of 0% and a remaining activity at 75 µM ([1]; 75 µM, wild-type C. elegans, mean of Rep1-4, read-out: percent in vitro complex I activity relative to solvent control, Mean) of 0.911%. The IC50 [1, 2] was 0.032 µM, the “Log IC50 C. elegans complex I” value [1] was -1.49 µM and the IC50 [1, 9] was 0.032 µM. The IC50 ([1]; wild-type C. elegans mitochondria, estimated from fitted dose-response curves, read-out: C. elegans Complex I IC50) was 0.032 µM, the “Screen "Hit"” value (L1 wild-type C. elegans; [10]) was “Y (hits were identified as compounds that reduced relative motility below 0.25 (75% reduction))” and the CC50 at 2 days (in vitro; HEK293 Cell Viability Assay LC50, HEK293 cells, estimated from fitted dose-response curves, mean of at least two biological replicates) was 89.3 µM.
For `Clc1ccc(Cn2cnc3ccccc32)cc1Cl` [Compound 5571325], the activity at 0.0001 µM [1] was 90.4%, the activity at 0.0005 µM [1] was 92.7% and the activity at 0.001 µM [1] was 95.2%. For the same compound, the activity at 0.0025 µM [1] was 95.4%, the activity at 0.005 µM [1] was 92.8% and the activity at 0.013 µM [1] was 92.4%. It also gave an activity at 0.025 µM [1] of 92.1%, an activity at 0.063 µM [1] of 90.9% and an activity at 0.125 µM [1] of 87.7%. For the same compound, the activity at 0.313 µM [1] was 83.6%, the activity at 0.625 µM [1] was 83% and the activity at 1.5 µM [1] was 69.7%. The activity at 3 µM [1] was 57.2%, the activity at 15 µM [1] was 19% and the activity at 37.5 µM [1] was 8.47%. The activity at 75 µM [1] was 7.02%, the IC50 [1, 2] was 4.38 µM and the “Log IC50 C. elegans complex I” value [1] was 0.64 µM. For the same compound, the IC50 [1, 9] was 4.38 µM, the IC50 [1, 3] was 4.38 µM and the “Screen "Hit"” value (L1 wild-type C. elegans; [10]) was “Y (hits were identified as compounds that reduced relative motility below 0.25 (75% reduction))”. For the same compound, the “C. elegans KCN Survival” value (L1 wild-type C. elegans; [5]) was 1.000, the “C. elegans KCN Survival” value (L1 wild-type C. elegans; Dose 0.39 µM) was 0.996 and the “C. elegans KCN Survival” value (L1 wild-type C. elegans; Dose 1.56 µM) was 1.008. The “C. elegans KCN Survival” value (L1 wild-type C. elegans; Dose 3.13 µM) was 0.957, the “C. elegans KCN Survival” value (L1 wild-type C. elegans; Dose 6.25 µM) was 0.819 and the “C. elegans KCN Survival” value (L1 wild-type C. elegans; Dose 12.5 µM) was 0.586. The “C. elegans KCN Survival” value (L1 wild-type C. elegans; Dose 25 µM) was 0.133, the “C. elegans KCN Survival” value (L1 wild-type C. elegans; Dose 50 µM) was 0.122 and the “C. elegans KCN Survival” value (L1 wild-type C. elegans; Dose 100 µM) was 0.206. For the same compound, the CC50 at 2 days (in vitro; [6]) was 86.4 µM, the viability at 2 days, 3.13 µM (in vitro) was 73.5% and the viability at 2 days, 6.25 µM (in vitro) was 52.9%. For the same compound, the viability at 2 days, 12.5 µM (in vitro) was 49.8%, the viability at 2 days, 25 µM (in vitro) was 60.7% and the viability at 2 days, 50 µM (in vitro) was 57.7%. It also gave a viability at 2 days, 100 µM (in vitro) of 16.3%.
